Reference: article PMC3646771, “The Second Intracellular Loop of the Human Cannabinoid CB2 Receptor Governs G Protein Coupling in Coordination with the Carboxyl Terminal Domain” (PLoS ONE, 2013)

Legend:
Assay in all cases: CRE-luciferase cAMP reporter, HEK293
Type in all cases: cell-based, Homo sapiens
CB2-ICL2Cter (i2Cter) = test system: T1, CB2-ICL2Cter (i2Cter); conditions: agonist; stimulation of cAMP, no forskolin, 4 h, 37 °C; pEC50 6.85±0.1
T1 construct: gene CNR2; Flag-tagged CB2 with second intracellular loop and C-terminal tail of CB1; HEK293
Description: CRE-luciferase cAMP reporter, HEK293 on CB2-ICL2Cter (i2Cter)

CB2-ICL2ICL3 (i2i3) = test system: T2, CB2-ICL2ICL3 (i2i3); conditions: agonist; inhibition of cAMP elevated by 10 µM forskolin, 4 h, 37 °C; pEC50 8.47±0.15
T2 construct: gene CNR2; Flag-tagged CB2 with second and third intracellular loops of CB1; HEK293
Description: CRE-luciferase cAMP reporter, HEK293 on CB2-ICL2ICL3 (i2i3)

CB2-ICL2 (i2) = test system: T3, CB2-ICL2 (i2); conditions: agonist; inhibition of cAMP elevated by 10 µM forskolin, 4 h, 37 °C; pEC50 7.74±0.09
T3 construct: gene CNR2; Flag-tagged CB2 with second intracellular loop replaced by that of CB1; HEK293
Description: CRE-luciferase cAMP reporter, HEK293 on CB2-ICL2 (i2)

CB2-Cter (Cter) = test system: T4, CB2-Cter (Cter); conditions: agonist, 4 h, 37 °C
T4 construct: gene CNR2; Flag-tagged CB2 with C-terminal tail replaced by that of CB1; HEK293
Description: CRE-luciferase cAMP reporter, HEK293 on CB2-Cter (Cter)

CB2-ICL1 (i1) = test system: T5, CB2-ICL1 (i1); conditions: agonist; inhibition of cAMP elevated by 10 µM forskolin, 4 h, 37 °C; pEC50 8.17±0.19
T5 construct: gene CNR2; Flag-tagged CB2 with first intracellular loop replaced by that of CB1; HEK293
Description: CRE-luciferase cAMP reporter, HEK293 on CB2-ICL1 (i1)

CB2-ICL3 (i3) = test system: T6, CB2-ICL3 (i3); conditions: agonist; inhibition of cAMP elevated by 10 µM forskolin, 4 h, 37 °C; pEC50 7.99±0.22
T6 construct: gene CNR2; Flag-tagged CB2 with third intracellular loop replaced by that of CB1; HEK293
Description: CRE-luciferase cAMP reporter, HEK293 on CB2-ICL3 (i3)

[1] = test system: T7, CB2-ICL2ICL3Cter (i2i3Cter); conditions: agonist; inhibition of cAMP elevated by 10 µM forskolin, 4 h, 37 °C; pEC50 8.48±0.22
T7 construct: gene CNR2; Flag-tagged CB2 with second and third intracellular loops and C-terminal tail of CB1; HEK293
Description: CRE-luciferase cAMP reporter, HEK293 on CB2-ICL2ICL3Cter (i2i3Cter)

**Q.** Which results are given for Cc1c(C(=O)c2cccc3ccccc23)c2cccc3c2n1[C@H](CN1CCOCC1)CO3 [WIN55,212-2]?
**A.** EC50 (CB2-ICL2Cter (i2Cter)): 149 ± 35 nM; EC50 (CB2-ICL2ICL3 (i2i3)): 3.8 ± 1.2 nM; EC50 (CB2-ICL2 (i2)): 19.2 ± 4.4 nM; EC50 (CB2-Cter (Cter); P139LCter, stimulation of cAMP, no forskolin, pEC50 7.53±0.11): 29.8 ± 7.1 nM; EC50 (CB2-Cter (Cter); inhibition of cAMP elevated by 10 µM forskolin, pEC50 8.23±0.03): 5.9 ± 0.4 nM; EC50 (CB2-ICL1 (i1)): 8 ± 2.8 nM; EC50 (CB2-ICL3 (i3)): 13.4 ± 7.3 nM; EC50 [1]: 4.4 ± 2.4 nM
